Assay results: patent US8907098B2, “Inhibitors of sphingosine kinase” (MERCK PATENT GmbH, priority 2009, dated 2014)

Biological target: modified SphK1 (Homo sapiens, UniProt Q9NYA1)
Assay: SphK1 biochemical kinase assay (384-well flashplate)
Details: IC50 ranges; 5 nM modified SphK1, 1 μM ATP, 30° C., 120 min; read-out: SphK1 Inhibition IC50
Method: The kinase assay is carried out as a 384-well flashplate assay.
5 nM modified SphK1, 800 nM omega-biotinyl-D-erythro-sphingosine and 1 μM ATP (with 0.3 μCi of ^33P-ATP/well) are incubated in a total volume of 50 μl (25 mM HEPES, 5 mM MgCl2, 1 mM dithiothreitol, 0.01% of Brij35, 0.1% of BSA (fatty acid-free), pH 7.4) without or with test substance (5-10 concentrations) at 30° C. for 120 min. The reaction is terminated using 25 μl of 200 mM EDTA solution, filtered off with suction at room temperature after 30 min, and the cavities are washed 3 times with 100 μl of 0.9% NaCl solution. The non-specific proportion of the kinase reaction (blank) is determined using 0.5 mM NaCl. Radioactivity is measured in topcount. IC50 values are calculated using RS1.

modified SphK1, sequence (Q9NYA1 whole entry): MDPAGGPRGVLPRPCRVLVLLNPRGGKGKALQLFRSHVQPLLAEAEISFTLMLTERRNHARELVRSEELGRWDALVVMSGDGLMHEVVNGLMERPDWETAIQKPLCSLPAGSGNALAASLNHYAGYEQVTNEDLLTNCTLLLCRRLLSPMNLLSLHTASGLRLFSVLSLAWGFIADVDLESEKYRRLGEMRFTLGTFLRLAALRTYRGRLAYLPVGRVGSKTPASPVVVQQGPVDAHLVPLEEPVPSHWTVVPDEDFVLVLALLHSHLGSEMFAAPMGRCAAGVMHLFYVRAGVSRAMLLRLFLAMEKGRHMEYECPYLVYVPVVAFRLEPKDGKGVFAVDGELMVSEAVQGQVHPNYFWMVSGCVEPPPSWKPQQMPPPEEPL

Row | SMILES | IC50 [µM]
1 | CC1(C)CCC(C)(C)c2cc(-c3csc(N4CCC(N5CCC(N)C5)CC4)n3)ccc21 (centres unmarked) | 0.1 to 1
2 | CC(=O)N1CCC(c2csc(-c3ccc4c(c3)C(C)(C)CCC4(C)C)n2)CC1 | 0.1 to 1
3 | CC1(C)CCCc2cc(-c3csc(N4CCC(N)CC4)n3)ccc21 | 0.1 to 1
4 | CC1(C)CCC(C)(C)c2cc(-c3csc(N4CCCC(C(=O)NCCCO)C4)n3)ccc21 (centres unmarked) | > 1
5 | CC1(C)CCC(C)(C)c2cc(-c3csc(C4CCCN(CCO)C4)n3)ccc21 (centres unmarked) | 0.1 to 1
6 | CC1(C)CCC(C)(C)c2cc(-c3csc(N4CCN(C5CCCCC5O)CC4)n3)ccc21 (centres unmarked) | 0.1 to 1
7 | CC1(C)CCCc2cc(-c3csc(N4CCC(N(CCO)CCO)CC4)n3)ccc21 | 0.1 to 1
8 | CC1(C)CCC(C)(C)c2cc(-c3csc(C4CCCN(CCCO)C4)n3)ccc21 (centres unmarked) | > 1
9 | CC1(C)CCC(C)(C)c2cc(-c3csc(N4CCC(N5CCOCC5)CC4)n3)ccc21 | > 1
10 | CC1(C)CCC(C)(C)c2cc(-c3csc(C4CCCN(CCCCO)C4)n3)ccc21 (centres unmarked) | > 1
11 | CC1(C)CCCc2cc(-c3csc(N4CCN(CCCCO)CC4)n3)ccc21 | 0.1 to 1
12 | CC1(C)CCC(C)(C)c2cc(-c3csc(N4CCN(CCCCO)CC4)n3)ccc21 | 0.1 to 1
13 | CC1(C)CCC(C)(C)c2cc(-c3csc(C4CCC(N)CC4)n3)ccc21 (centres unmarked) | 0.1 to 1
14 | CC1(C)CCCc2cc(-c3csc(C4CCN(CCCCCO)C4)n3)ccc21 (centres unmarked) | 0.1 to 1
15 | CC1(C)CCC(C)(C)c2cc(-c3csc(C4CCCN(CCCCCO)C4)n3)ccc21 (centres unmarked) | > 1
16 | CC1(C)CCC(C)(C)c2cc(-c3csc(N4CCN(CCCCCO)CC4)n3)ccc21 | 0.1 to 1

The next lines start with the values.

Row | IC50 [µM] | SMILES
17 | 0.1 to 1 | CC1(C)CCC(C)(C)c2cc(-c3csc(N4CCCC(C(=O)NCCO)C4)n3)ccc21 (centres unmarked)
18 | > 1 | CC1(C)CCC(C)(C)c2cc(-c3csc(N4CCC(C(=O)NCCO)CC4)n3)ccc21
19 | < 0.1 | CC1(C)CCC(C)(C)c2cc(-c3csc(N4CCC(NCCO)CC4)n3)ccc21
20 | 0.1 to 1 | CC1(C)CCC(C)(C)c2cc(-c3csc(N4CCC(CCN)CC4)n3)ccc21
21 | 0.1 to 1 | CC1(C)CCC(C)(C)c2cc(-c3csc(N4CCCC(CCO)C4)n3)ccc21 (centres unmarked)
22 | 0.1 to 1 | CC1(C)CCC(C)(C)c2cc(-c3csc(N4CCC(N5CCN(CCO)CC5)CC4)n3)ccc21
23 | 0.1 to 1 | CC1(C)CCC(C)(C)c2cc(-c3csc(N4CCN(CCO)CC4)n3)ccc21
24 | > 1 | CC1(C)CCC(C)(C)c2cc(-c3csc(N4CC[C@@H](NCCO)C4)n3)ccc21
25 | < 0.1 | CC1(C)CCC(C)(C)c2cc(-c3csc(N4CCC(NCCCO)CC4)n3)ccc21
26 | < 0.1 | CC1(C)CCC(C)(C)c2cc(-c3csc(N4CCC(NCC(O)CO)CC4)n3)ccc21 (centres unmarked)
27 | > 1 | CC1(C)CCC(C)(C)c2cc(-c3csc(N4CCCC(CCCO)C4)n3)ccc21 (centres unmarked)
28 | > 1 | CC1(C)CCC(C)(C)c2cc(-c3csc(N4CCC(CCCO)CC4)n3)ccc21
29 | 0.1 to 1 | CC1(C)CCC(C)(C)c2cc(-c3csc(N4CCN(CCCO)CC4)n3)ccc21
30 | 0.1 to 1 | CC1(C)CCC(C)(C)c2cc(-c3csc(N4CCN(CC(O)CO)CC4)n3)ccc21 (centres unmarked)
31 | > 1 | CC1(C)CCC(C)(C)c2cc(-c3csc(N4CC[C@H](NCCCO)C4)n3)ccc21
32 | 0.1 to 1 | CC1(C)CCC(C)(C)c2cc(-c3csc(N4CCC(CN)CC4)n3)ccc21
33 | < 0.1 | CC(=O)NC1CCN(C2CCN(c3nc(-c4ccc5c(c4)C(C)(C)CCC5(C)C)cs3)CC2)C1 (centres unmarked)
34 | 0.1 to 1 | CC1(C)CCC(C)(C)c2cc(-c3csc(N4CC[C@@H](N)C4)n3)ccc21
35 | 0.1 to 1 | CC1(C)CCC(C)(C)c2cc(-c3csc(N4CCC(NC[C@@H](N)CO)CC4)n3)ccc21
36 | 0.1 to 1 | CC1(C)CCC(C)(C)c2cc(-c3csc(N4CCC(NC[C@@H](O)CO)CC4)n3)ccc21
37 | 0.1 to 1 | CC1(C)CCC(C)(C)c2cc(-c3csc(N4CC[C@H](N)C4)n3)ccc21
38 | < 0.1 | CC1(C)CCC(C)(C)c2cc(-c3csc(N4CCC(NC[C@H](O)CO)CC4)n3)ccc21
